Measured values: ChEMBL document CHEMBL2390951, “Impact of fluorination on proteolytic stability of peptides in human blood plasma” (Bioorg Med Chem, 2013)
Non-standard residues stand in square brackets, D forms with d. Residues, ends and D or L forms follow the SMILES beside them. Abu(4,4,4-F3) = N[C@@H](CC(F)(F)F)C(=O)O; Abu(4,4-F2) = N[C@@H](CC(F)F)C(=O)O; 4Abz = Nc1ccc(C(=O)O)cc1; Abu = CC[C@H](N)C(=O)O

Test system: not listed separately
Test: (§1) Proteolytic stability in human plasma assessed as compound degradation at 1:3 compound to plasma ratio after 2 hrs by RP-HPLC analysis relative to control
Assay type: ADME, cell-free
Settings: read-out: Drug degradation

metabolised at 2 h [%] | Structure (SMILES)
≤ 35 | C[C@H](NC(=O)[C@H](C)NC(=O)[C@H](CC(F)F)NC(=O)[C@H](C)NC(=O)[C@H](Cc1ccccc1)NC(=O)[C@H](C)NC(=O)[C@H](C)NC(=O)[C@H](CCCCN)NC(=O)c1ccc(N)cc1)C(=O)N[C@@H](CCCCN)C(=O)O (H-[4Abz]KAAFA[Abu(4,4-F2)]AAK-OH) [listing 1 of 2 here]

Test system: Plasma
Test: as §1
Assay type: ADME, cell-free
Settings: 2 h

Stability | Structure (SMILES)
Unstable | C[C@H](NC(=O)[C@H](C)NC(=O)[C@H](CC(F)(F)F)NC(=O)[C@H](C)NC(=O)[C@H](Cc1ccccc1)NC(=O)[C@H](C)NC(=O)[C@H](C)NC(=O)[C@H](CCCCN)NC(=O)c1ccc(N)cc1)C(=O)N[C@@H](CCCCN)C(=O)O.O=C(O)C(F)(F)F (H-[4Abz]KAAFA[Abu(4,4,4-F3)]AAK-OH)
Stable | CC[C@H](NC(=O)[C@H](C)NC(=O)[C@H](Cc1ccccc1)NC(=O)[C@H](C)NC(=O)[C@H](C)NC(=O)[C@H](CCCCN)NC(=O)c1ccc(N)cc1)C(=O)N[C@@H](C)C(=O)N[C@@H](C)C(=O)N[C@@H](CCCCN)C(=O)O.O=C(O)C(F)(F)F (H-[4Abz]KAAFA[Abu]AAK-OH)
Stable | C[C@H](NC(=O)[C@H](C)NC(=O)[C@H](CC(F)(F)F)NC(=O)[C@H](Cc1ccccc1)NC(=O)[C@H](C)NC(=O)[C@H](C)NC(=O)[C@H](CCCCN)NC(=O)c1ccc(N)cc1)C(=O)N[C@@H](C)C(=O)N[C@@H](CCCCN)C(=O)O.O=C(O)C(F)(F)F (H-[4Abz]KAAF[Abu(4,4,4-F3)]AAAK-OH)
Stable | CC[C@H](NC(=O)[C@H](C)NC(=O)[C@H](CCCCN)NC(=O)c1ccc(N)cc1)C(=O)N[C@@H](Cc1ccccc1)C(=O)N[C@@H](C)C(=O)N[C@@H](C)C(=O)N[C@@H](C)C(=O)N[C@@H](C)C(=O)N[C@@H](CCCCN)C(=O)O.O=C(O)C(F)(F)F (H-[4Abz]KA[Abu]FAAAAK-OH)

Test system: not listed separately
Test: Proteolytic stability in Tris-HCl buffer assessed as compound degradation at 20 umol/ml after 2 hrs by RP-HPLC analysis in presence of elastase relative to control
Assay type: ADME
Settings: buffer, 2 h

Stability | Structure (SMILES)
Unstable | C[C@H](NC(=O)[C@H](C)NC(=O)[C@H](CC(F)(F)F)NC(=O)[C@H](C)NC(=O)[C@H](Cc1ccccc1)NC(=O)[C@H](C)NC(=O)[C@H](C)NC(=O)[C@H](CCCCN)NC(=O)c1ccc(N)cc1)C(=O)N[C@@H](CCCCN)C(=O)O (H-[4Abz]KAAFA[Abu(4,4,4-F3)]AAK-OH)
Stable | C[C@H](NC(=O)[C@H](C)NC(=O)[C@H](CC(F)F)NC(=O)[C@H](C)NC(=O)[C@H](Cc1ccccc1)NC(=O)[C@H](C)NC(=O)[C@H](C)NC(=O)[C@H](CCCCN)NC(=O)c1ccc(N)cc1)C(=O)N[C@@H](CCCCN)C(=O)O (H-[4Abz]KAAFA[Abu(4,4-F2)]AAK-OH) [listing 2 of 2 here]
Stable | CC[C@H](NC(=O)[C@H](C)NC(=O)[C@H](Cc1ccccc1)NC(=O)[C@H](C)NC(=O)[C@H](C)NC(=O)[C@H](CCCCN)NC(=O)c1ccc(N)cc1)C(=O)N[C@@H](C)C(=O)N[C@@H](C)C(=O)N[C@@H](CCCCN)C(=O)O (H-[4Abz]KAAFA[Abu]AAK-OH)
Stable | C[C@H](NC(=O)[C@H](C)NC(=O)[C@H](CC(F)(F)F)NC(=O)[C@H](Cc1ccccc1)NC(=O)[C@H](C)NC(=O)[C@H](C)NC(=O)[C@H](CCCCN)NC(=O)c1ccc(N)cc1)C(=O)N[C@@H](C)C(=O)N[C@@H](CCCCN)C(=O)O (H-[4Abz]KAAF[Abu(4,4,4-F3)]AAAK-OH)
Stable | CC[C@H](NC(=O)[C@H](Cc1ccccc1)NC(=O)[C@H](C)NC(=O)[C@H](C)NC(=O)[C@H](CCCCN)NC(=O)c1ccc(N)cc1)C(=O)N[C@@H](C)C(=O)N[C@@H](C)C(=O)N[C@@H](C)C(=O)N[C@@H](CCCCN)C(=O)O (H-[4Abz]KAAF[Abu]AAAK-OH)

Same assay, conditions: elastase in Tris-HCl buffer; read-out: Drug degradation

metabolised at 2 h, 20 umol/ml [%] | Structure (SMILES)
≤ 35 | C[C@H](NC(=O)[C@H](C)NC(=O)[C@H](CC(F)F)NC(=O)[C@H](Cc1ccccc1)NC(=O)[C@H](C)NC(=O)[C@H](C)NC(=O)[C@H](CCCCN)NC(=O)c1ccc(N)cc1)C(=O)N[C@@H](C)C(=O)N[C@@H](CCCCN)C(=O)O (H-[4Abz]KAAF[Abu(4,4-F2)]AAAK-OH)
≤ 35 | C[C@H](NC(=O)[C@H](C)NC(=O)[C@H](C)NC(=O)[C@H](Cc1ccccc1)NC(=O)[C@H](CC(F)F)NC(=O)[C@H](C)NC(=O)[C@H](CCCCN)NC(=O)c1ccc(N)cc1)C(=O)N[C@@H](C)C(=O)N[C@@H](CCCCN)C(=O)O (H-[4Abz]KA[Abu(4,4-F2)]FAAAAK-OH)
